Measured values published in the NIST ThermoML archive (doi:10.1016/j.jct.2016.03.026).

Test: xn = mol fraction of the nth substance listed
Settings: 283.15 K, Fluid (supercritical or subcritical phases), Vibrating tube method, x1 = 0.97

O=C=O [carbon dioxide] + CO
Settings	mass density [kg/m3]
7400 kPa	903.45
7425 kPa	903.64
7450 kPa	903.9
7475 kPa	904.05
7500 kPa	904.3
7525 kPa	904.46
7550 kPa	904.69
7575 kPa	904.94
7600 kPa	905.11
7625 kPa	905.36
7650 kPa	905.61
7675 kPa	905.8
7700 kPa	906.04
7725 kPa	906.26
7750 kPa	906.42
7775 kPa	906.67
7800 kPa	906.89
7825 kPa	907.08
7850 kPa	907.32
7875 kPa	907.57
7900 kPa	907.73
7925 kPa	908.06
7950 kPa	908.15
7975 kPa	908.39
8000 kPa	908.68
8025 kPa	908.88
8050 kPa	909.06
8075 kPa	909.27
8100 kPa	909.45
8125 kPa	909.7
8150 kPa	909.86
8175 kPa	910.09
8200 kPa	910.33
8225 kPa	910.56
8250 kPa	910.76
8275 kPa	910.96
8300 kPa	911.17
8325 kPa	911.44
8350 kPa	911.66
8375 kPa	911.83
8400 kPa	912.07
8425 kPa	912.24
8450 kPa	912.4
8475 kPa	912.59
8500 kPa	912.85
8525 kPa	913.06
8550 kPa	913.26
8575 kPa	913.46
8600 kPa	913.66
8625 kPa	913.87
8650 kPa	914.07
8675 kPa	914.29
8700 kPa	914.39
8725 kPa	914.62
8750 kPa	914.82
8775 kPa	915.04
8800 kPa	915.26
8825 kPa	915.43
8850 kPa	915.64
8875 kPa	915.83
8900 kPa	916
8925 kPa	916.16
8950 kPa	916.35
8975 kPa	916.53
9000 kPa	916.73
9025 kPa	916.93
9050 kPa	917.12
9075 kPa	917.31
9100 kPa	917.55
9125 kPa	917.75
9150 kPa	917.9
9175 kPa	918.13
9200 kPa	918.33
9225 kPa	918.6
9250 kPa	918.7
9275 kPa	918.95
9300 kPa	919.11
9325 kPa	919.31
9350 kPa	919.52
9375 kPa	919.69
9400 kPa	919.87
9425 kPa	920.09
9450 kPa	920.32
9475 kPa	920.47
9500 kPa	920.65
9525 kPa	920.85
9550 kPa	921.09
9575 kPa	921.21
9600 kPa	921.39
9625 kPa	921.56
9650 kPa	921.81
9675 kPa	921.97
9700 kPa	922.14
9725 kPa	922.38
9750 kPa	922.58
9775 kPa	922.71
9800 kPa	922.94
9825 kPa	923.15
9850 kPa	923.28
9875 kPa	923.48
9900 kPa	923.69
9925 kPa	923.77
9950 kPa	924
9975 kPa	924.18
10000 kPa	924.34
10025 kPa	924.53
10050 kPa	924.71
10075 kPa	924.83
10100 kPa	925.08
10125 kPa	925.24
10150 kPa	925.41
10175 kPa	925.57
10200 kPa	925.75
10225 kPa	926.06
10250 kPa	926.06
10275 kPa	926.3
10300 kPa	926.47
10325 kPa	926.69
10350 kPa	926.79
10375 kPa	927.06
10400 kPa	927.17
10425 kPa	927.34
